From paper PMC8146789, “20-Hydroxyecdysone, from Plant Extracts to Clinical Use: Therapeutic Potential for the Treatment of Neuromuscular, Cardio-Metabolic and Respiratory Diseases” (Biomedicines, 2021)
Read-outs that look alike come from different tables or passages of the source.

Columns and labels:
[1] = repeated dose toxicity study (26-week); conditions: rat, in vivo; rats, 26-week repeated dose; Biophytis, unpublished data; read-out: No Observed Adverse Effect Level (NOAEL)
Description: (§1) More recently, a purified to pharmaceutical grade 20E (≥97% 20E purity) was used as a drug candidate in preclinical regulatory studies including safety pharmacology, genotoxicity and repeated toxicology in rodents (rats) and non-rodents (dog).

[2] = repeated dose toxicity study (39-week); conditions: dog, in vivo; dogs, 39-week repeated dose; Biophytis, unpublished data; read-out: No Observed Adverse Effect Level (NOAEL)
Description: as §1

[3] = genotoxicity (preclinical regulatory studies); conditions: Biophytis, unpublished data
Description: as §1

[4] = tested on: myostatin gene expression in C2C12 cells; conditions: C2C12 myotubes, ref [103], cited from earlier work
[5] = tested on: Erβ; set-up: method as in PMID 24974955; conditions: ref [54]; cited from earlier work
[6] = tested on: ERα; set-up: method as in PMID 18220764; conditions: cited from earlier work
[7] = tested on: Erβ; set-up: method as in PMID 18220764; conditions: cited from earlier work
[8] = tested on: epididymal adipose tissue; set-up: method as in PMID 21869758; conditions: mice, high-fat diet, 20E 50 mg/kg/day; ref [59]; cited from earlier work
[9] = set-up: method as in PMID 31190566; conditions: high fructose fed gerbils; ref [61]; cited from earlier work
[10] = set-up: method as in PMID 33819630; conditions: male Wistar rats, oral [3H]20E; ref [127]; cited from earlier work
[11] = set-up: method as in doi:10.1016/0924-977X(96)83007-0; conditions: 7.5–10 mg/day, 1 month; ref [165]; cited from earlier work
[12] = set-up: method as in doi:10.1007/BF02234932; conditions: 15 mg/day, 10 days; ref [166]; cited from earlier work
[13] = 30 days, ref [158], cited from earlier work
[14] = set-up: method as in PMID 15559639; conditions: hepatitis B, 5 mg b.i.d., 30 days; ref [159]; cited from earlier work
[15] = tested on: Lambliasis; set-up: method as in PMID 20614521; conditions: 5 mg 4×/day, 10 days; ref [168]; cited from earlier work
[16] = tested on: Hymenolepiasis; set-up: method as in PMID 22536744; conditions: 5 mg 3×/day, 2 weeks; ref [169]; cited from earlier work
[17] = set-up: method as in doi:10.1055/s-0032-1320272; conditions: overweight, 2 × 50 mg/day; ref [170]; cited from earlier work
[18] = set-up: method as in ref [177] = [177]; 177. Dustmukhamedova D.K.H. Kamilovz A.T. The characteristic of energy metabolism disorders and its correction in children with celiac disease Am. J. Med. Medic. Sci. 2020 10 780 783; conditions: children 3–14, 2.5 mg/kg/day, 14 days; ref [177]; cited from earlier work
[19] = set-up: method as in doi:10.1055/s-0032-1320426; conditions: ovariectomized rats, p < 0.05; ref [171],[172]; cited from earlier work
[20] = alcohols; cited from earlier work
[21] = tested on: mice; conditions: ref Ogawa et al. [121], cited from earlier work
[22] = tested on: rats; conditions: long-term feeding 0.2–2 g/kg/day, ref [121]; cited from earlier work
[23] = tested on: rabbits; conditions: up to 100 mg/kg, ref [121]; cited from earlier work
[24] = cited from earlier work
[25] = in vivo; cited from earlier work
[26] = humans, ingestion of 434 mg, ref [134]
[27] = humans, single oral intake of 20 mg, RIA and LC-MS

CC(C)(O)CC[C@@H](O)[C@](C)(O)[C@H]1CC[C@@]2(O)C3=CC(=O)[C@@H]4C[C@@H](O)[C@@H](O)C[C@]4(C)[C@H]3CC[C@]12C [20E, 2β,3β,14α,20R,22R,25-hexahydroxy-5β-cholest-7-en-6-one]
NOAEL at 26 week [1]: 1000 mg/kg | NOAEL at 39 week [2]: 1000 mg/kg | genotoxic effects [3]: no genotoxic effects | concentration with significant difference from control in myostatin gene expression ([4]; 0.001 to 10 μM tested): 1 to 10 µM | myostatin gene expression ([4]; 6 h treatment): mimics the effect of IGF-1 in a dose-dependent manner | activation of ERE reporter gene [5]: could be activated dose dependently | binding to nuclear receptor [6]: negative | binding to nuclear receptor [7]: negative | adipocyte diameter [8]: retains the median adipocyte diameter close to that in mice fed a low-fat diet | mass of epididymal fat pads [8]: counteracts both the increase in the mass of the fat pads | effect on adiposity [9]: efficient | radioactivity in urine, of the total radioactivity recovered [10]: 1.40% | time to completed elimination of 20E and its metabolites [10]: ≤ 48 h | patients with improvement of libido and sexual activity [11]: Improvement of libido and sexual activity in 75% of patients | kidney function and microcirculation [12]: Improvement of kidney function and of microcirculation | sexual function output ([13]; 5 mg 3×/day, age 40–60 M): Improvement of sexual function during recovery from myocardial infarction | sexual function output ([13]; 5 mg, 2×/day): Improved sperm quality and copulative function in patients with disturbed spermatogenesis as a complication of urologic diseases | liver state [14]: In case of hepatitis B, improvement of liver state | parasite elimination [15]: Therapy eliminated most parasites within 10 days | parasitological efficacy [16]: 36.4% | symptoms [16]: Reduction in symptoms | change in C-reactive protein [17]: −38% | change in body fat [17]: −7.6% | change in body weight [17]: −1.3% | change in total cholesterol [17]: −17% | change in triglycerides [17]: −37% | change in waist circumference [17]: −3.2% | muscle increase [17]: +2.9% | output of celiac disease study [18]: Reduction in symptoms Improvement of energy metabolism | abdominal, bone marrow and joint fat [19]: reduced the amount of abdominal, bone marrow and joint fat | solubility [20]: highly soluble in alcohols | LD50 ([21]; i.p.-injected): 6400 mg/kg | LD50 ([21]; ingested): > 9000 mg/kg | subacute toxicity [22]: no subacute toxicity was observed | effects after administration [23]: no effects were seen | total urinary excretion of 20E [24, 26]: 5 mg | urinary excretion, of the ingested amount [24, 26]: approximately 1% | urinary peak level ([24]; humans, ingestion of ca. 15 mg, ref Simon and Koolman [132]): approximately 0.5 μM | time of urinary peak of detectable ecdysteroids [24, 27]: 3 to 4 h | total quantity of detectable ecdysteroids in urine [24, 27]: 1 to 2 mg | effective half-time of elimination from the blood ([24]; in vivo): 9 h | effective half-time of elimination from the urine ([24]; in vivo): 3.3 h | time of plasma titre maximum ([24]; in vivo): ca. 30 min | time of plasma titre maximum [25]: ca. 30 min
